Data published in US20250161286A1 (AEVIS BIO, INC., priority 2022, published 2025).

Experiment: Cytotoxicity evaluation, CCK analysis kit
Format: cell-based
Details: human, MM.1S (CRL-2974) multiple myeloma cells; MM.1S cells, treated for 3 days
Description: The MM.1S (CRL-2974) cell line, which is a human multiple myeloma cell line, was purchased from the American Type Culture Collection (ATCC, Manassas, VA, USA) and used, and incubated using RPMI1640 medium (Corning, MD, USA) supplemented with 10% fatal bovine serum (Corning, MD, USA), 100 U/ml of penicillin (Corning, MD, USA), and 100 μg/ml of streptomycin (Corning, MD, USA) at 37° C. in a 5% CO2 incubator for 24 hours.

Compound: Nc1cccc2c1C(=O)N(C1CCC(=O)NC1=O)C2=O (racemic) [pomalidomide, (R,S)-4-amino-2-(2,6-dioxopiperidin-3-yl)isoindole-1,3-dione, reference compound]
- IC50 at 3 days: 69 nM
